Consider 25 molecules from patent US8962627B2, “Oxime derivatives and their use as allosteric modulators of metabotropic glutamate receptors” (Prestwick Chemical, Inc., priority 2009, dated 2015).

Structures are written as SMILES. Bounds are passed on as bounds.

Data set [1] has as its target T1, human mGluR4 transiently over-expressed in HEK-293 cells (Homo sapiens, UniProt Q14833).
T1 construct: expressed in transfected cells; host or cells: HEK-293 cells, transient co-transfection by electroporation
Kind of data set: Human mGluR4 positive allosteric modulator evaluation using Ca++ functional assay. It is filed as cell-based. The conditions noted are these: for EC50: HEK-293 cells co-transfected with hmGluR4 and chimeric G protein, EC10 glutamate, intracellular calcium (Fluo4AM), read-out: mean EC50 of agonist/positive allosteric modulator activity on mGluR4. As to the method:
Human mGluR4 Positive Allosteric Modulator Evaluation Using Ca^++ Functional Assay
Compounds of the present invention were tested successively for their agonist and positive allosteric modulator activities on human mGluR4 transiently over-expressed in HEK-293 cells. They exert agonist activity if, by themselves in absence of the endogenous glutamate, they are able to activate mGluR4; and they exert positive allosteric modulator activity if they increase the action of the endogenous glutamate.
Cell Culture and Transfection
HEK-293 cells were maintained in Modified Eagle's Medium supplemented with 10% Foetal Calf Serum, 1% Penicillin/Streptomycin and 1% non essential amino acids at 37° C./5% CO2.
Cells were co-transfected by electroporation with two DNA plasmids encoding hmGluR4 and a chimeric G protein allowing redirection of the activation signal to intracellular calcium pathway. Cells were plated after transfection onto polyornithine coated, clear bottom, black-walled, 96-well plates and cultured for 24 h.
Calcium Assay EC50 Determination
Receptor activity was detected by changes in intracellular calcium measured using the fluorescent Ca^2+ sensitive dye, Fluo4AM (Molecular Probes).
The day of the assay, medium was aspirated and replaced during 3 hours by medium without serum supplemented with 1% Glutamax, 1% Penicillin/Streptomycin and 1% non essential amino acids. Then, cells were washed with freshly prepared buffer B (HBSS 1×(PAA), Hepes 20 mM, MgSO4-7H2O 1 mM, Na2CO3 3.3 mM, CaCl2-2H2O 1.3 mM, 0.5% BSA, Probenecid 2.5 mM) and loaded at 37° C. in 5% CO2 for 1.5 hours with buffer B containing 1 μM Fluo4AM 0.1 mg/mL Pluronic Acid, 7 μg/mL Glutamate Pyruvate Transaminase and 2 mM sodium pyruvate. Afterwards cells were washed twice with buffer B and 50 μL of this buffer were added to each well. Addition of compounds and intracellular Ca^2+ measurements (excitation 485 nm, emission 525 nm) were performed by the fluorescence microplate reader FlexStation (Molecular Devices).
Agonist and positive allosteric modulator activities of compounds were consecutively evaluated on the same cells plate. Agonist activity was first tested during 60 s with the addition of compound alone on the cells. Then, the cells were stimulated by an EC10 glutamate concentration and fluorescence recorded for additional 60 s. EC10 glutamate concentration is the concentration giving 10% of the maximal glutamate response. Agonist and/or positive allosteric modulator activity(ies) were evaluated in comparison to basal signal evoked by EC10 glutamate alone.
For EC50 determination, a dose-response test was performed using 6 to 9 concentrations of each compound of the invention. Dose-response curves were fitted using the sigmoidal dose-response (variable slope) analysis in GraphPad Prism program (Graph Pad Inc) and EC50 of agonist/positive allosteric modulator activity was calculated. Dose-response experiments were all performed in duplicate, two times independently.
In general terms: Calcium assays in cells follow changes in intracellular calcium, usually with a dye or a luminescent sensor.

T1 sequence (Q14833 33-912): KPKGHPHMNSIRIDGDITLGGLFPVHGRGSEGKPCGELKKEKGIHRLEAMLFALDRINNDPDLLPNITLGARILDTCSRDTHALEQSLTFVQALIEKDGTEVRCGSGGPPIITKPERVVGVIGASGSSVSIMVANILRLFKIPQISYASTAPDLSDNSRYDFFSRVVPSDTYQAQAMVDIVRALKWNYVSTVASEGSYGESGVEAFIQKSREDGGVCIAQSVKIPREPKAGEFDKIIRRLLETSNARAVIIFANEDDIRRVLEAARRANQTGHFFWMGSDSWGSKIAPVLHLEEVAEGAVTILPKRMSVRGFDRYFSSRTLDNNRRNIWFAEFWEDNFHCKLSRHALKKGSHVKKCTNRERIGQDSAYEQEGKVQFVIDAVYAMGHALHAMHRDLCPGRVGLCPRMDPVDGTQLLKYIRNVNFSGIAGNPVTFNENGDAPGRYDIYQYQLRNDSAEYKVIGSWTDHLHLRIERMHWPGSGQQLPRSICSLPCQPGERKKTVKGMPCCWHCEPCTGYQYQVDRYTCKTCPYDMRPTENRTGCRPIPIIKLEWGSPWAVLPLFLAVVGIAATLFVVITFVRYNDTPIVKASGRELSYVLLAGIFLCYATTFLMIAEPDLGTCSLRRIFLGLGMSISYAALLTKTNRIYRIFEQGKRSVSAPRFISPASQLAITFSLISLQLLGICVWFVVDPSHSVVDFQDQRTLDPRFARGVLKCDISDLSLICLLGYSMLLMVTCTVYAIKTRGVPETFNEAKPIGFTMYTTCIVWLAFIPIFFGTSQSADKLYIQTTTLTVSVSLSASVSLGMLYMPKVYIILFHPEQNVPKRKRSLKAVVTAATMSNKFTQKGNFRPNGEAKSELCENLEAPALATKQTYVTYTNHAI

The melting point is the temperature, or range, at which the solid turns liquid. As for `COc1cccc(C#Cc2ccc3c(=NO)cc(-c4cc5ccccc5cn4)oc3c2)c1` (mixture of isomers) [Example 28, 2-isoquinolin-3-yl-7-(3-methoxyphenyl)ethynyl-chromen-4-one oxime], the melting point fell in the range of 248 to 251 °C. In addition, the EC50 in data set [1] is less than 1000 nM.

In turn, `Cl.ON=c1cc(-c2cc3sccc3cn2)oc2ccc(OCCCc3ccncc3)cc12` [Example 134, 6-(3-Pyridin-4-yl-propoxy)-2-thieno[3,2-c]pyridin-6-yl-chromen-4-one oxime, hydrochloride] showed a melting point of 236 to 238 °C. The EC50 in data set [1] was less than 1000 nM.

Regarding `Cl.O=C(NCCN1CCOCC1)c1ccc2oc(-c3cc4cccn4cn3)cc(=NO)c2c1` [Example 115, 4-(hydroxyimino)-2-pyrrolo[1,2-c]pyrimidin-3-yl-4H-chromene-6-carboxylic acid (2-morpholin-4-yl-ethyl)-amide, hydrochloride], the melting point lay in the range of 230 to 235 °C. The EC50 in data set [1] is less than 1000 nM.

`ON=c1cc(-c2cc3cccn3cn2)oc2cccc(C(F)(F)F)c12` [Example 153, 2-Pyrrolo[1,2-c]pyrimidin-3-yl-5-trifluoromethyl-chromen-4-one oxime] registered a melting point of 255 to 257 °C. In addition, in data set [1], the EC50 is less than 5000 nM.

Molecule `ON=c1cc(-c2ccncn2)oc2ccccc12` [Example 80, 2-Pyrimidin-4-yl-chromen-4-one oxime] had a melting point of 208 to 211 °C. Moreover, the “PAM activity on mGluR4” value in data set [1] (up to 100 μM) is given as “no PAM activity”.

On to `COC[C@@H]1CCCN1CCOc1ccc2oc(-c3cc4cccn4cn3)cc(=NO)c2c1.Cl` [Example 96, 6-[2-((S)-2-methoxymethylpyrrolidin-1-yl)-ethoxy]-2-pyrrolo[1,2-c]pyrimidin-3-yl-chromen-4-one oxime, hydrochloride], for which the melting point was > 225 °C (dec.). For the same molecule, the EC50 in data set [1] was less than 1000 nM.

As for `CN1CCCN(CCOc2ccc3oc(-c4cc5cccn5cn4)cc(=NO)c3c2)CC1.Cl.Cl` [Example 94, 6-[2-(4-methyl-[1,4]diazepan-1-yl)-ethoxy]-2-pyrrolo[1,2-c]pyrimidin-3-yl-chromen-4-one oxime, dihydrochloride], the melting point is > 210 °C (dec.). In addition, the EC50 in data set [1] is less than 1000 nM.

`Cl.ON=c1cc(-c2cc3cccn3cn2)oc2ccc(CNCc3ccc(F)cc3)cc12` [Example 144, 6-[(4-Fluoro-benzylamino)-methyl]-2-pyrrolo[1,2-c]pyrimidin-3-yl-chromen-4-one oxime hydrochloride]: the melting point is > 210 °C (dec.). In addition, the EC50 in data set [1] was less than 5000 nM.

Regarding `Cl.ON=c1cc(-c2cc3cccn3cn2)oc2ccc(OCCN3CCCC3)cc12` [Example 87, 6-(2-Pyrrolidin-1-yl-ethoxy)-2-pyrrolo[1,2-c]pyrimidin-3-yl-chromen-4-one oxime, hydrochloride], the melting point was > 260 °C (dec.). In data set [1], the EC50 was less than 5000 nM.

On to `Cl.Cl.ON=c1cc(-c2cc3cccn3cn2)oc2ccc(OCCN3CCC(N4CCCC4)CC3)cc12` [Example 118, 6-[2-(4-pyrrolidin-1-yl-piperidin-1-yl)-ethoxy]-2-pyrrolo[1,2-c]pyrimidin-3-yl-chromen-4-one oxime, dihydrochloride], for which the melting point is > 210 °C (dec.). Further, the EC50 in data set [1] is less than 1000 nM.

`ON=c1cc(-c2cc3ccccc3cn2)oc2ccc(OC(F)(F)F)cc12` (mixture of isomers) [Example 10, 2-isoquinolin-3-yl-6-trifluoromethoxy-chromen-4-one oxime] showed a melting point of 250 to 254 °C. In data set [1], the EC50 is less than 5000 nM.

Take `Cn1ccc2cc(-c3cc(=NO)c4ccccc4o3)ncc21` [Example 77, 2-(1-Methyl-1H-pyrrolo[2,3-c]pyridin-5-yl)-chromen-4-one oxime]: the melting point was 270 to 275 °C (dec.). In data set [1], the EC50 is less than 5000 nM.

Consider `Cl.Cl.ON=c1cc(-c2cc3cccn3cn2)oc2ccc(OCCN3CCC(N4CCCCC4)CC3)cc12` [Example 116, 6-(2-[1,4′]bipiperidinyl-1′-yl-ethoxy)-2-pyrrolo[1,2-c]pyrimidin-3-yl-chromen-4-one oxime, dihydrochloride], for which the melting point was > 235 °C (dec.). Also, in data set [1], the EC50 is less than 1000 nM.

Consider `COCCCc1ccc2oc(-c3cc4cccn4cn3)cc(=NO)c2c1` (mixture of isomers) [Example 83, 6-(3-Methoxy-propyl)-2-pyrrolo[1,2-c]pyrimidin-3-yl-chromen-4-one oxime], for which the melting point was 172 to 173 °C. Further, in data set [1], the EC50 is less than 1000 nM.

Molecule `COc1ccc2c(=NO)cc(-c3cc4ccccc4cn3)oc2c1` (mixture of isomers) [Example 56, 2-isoquinolin-3-yl-7-methoxy-chromen-4-one oxime] registered a melting point of 246 to 248 °C. Moreover, the EC50 in data set [1] was less than 5000 nM.

In the case of `N#Cc1ccc2c(=NO)cc(-c3cc4ccccc4cn3)oc2c1` [Example 58, 7-cyano-2-isoquinolin-3-yl-chromen-4-one oxime], the melting point lay within 279 to 281 °C. Moreover, the EC50 in data set [1] is less than 5000 nM.

`ON=c1cc(-c2cc3cccn3cn2)oc2ccc(OCCOc3cccnc3)cc12` [Example 148, 6-[2-(Pyridin-3-yloxy)-ethoxy]-2-pyrrolo[1,2-c]pyrimidin-3-yl-chromen-4-one oxime] returned a melting point of 170 to 175 °C. Besides, the EC50 in data set [1] is less than 1000 nM.

For the molecule `Cl.ON=c1cc(-c2cc3sccc3cn2)oc2ccc(OCCN3CCC(F)(F)C3)cc12` [Example 133, 6-[2-(3,3-Difluoro-pyrrolidin-1-yl)-ethoxy]-2-thieno[3,2-c]pyridin-6-yl-chromen-4-one oxime, hydrochloride], the melting point fell in the range of 226 to 229 °C. Further, in data set [1], the EC50 is less than 1000 nM.

Consider `Cl.ON=c1cc(-c2cc3cccn3cn2)oc2ccc(OCCN3CCCOCC3)cc12` [Example 117, 6-(2-[1,4]oxazepan-4-yl-ethoxy)-2-pyrrolo[1,2-c]pyrimidin-3-yl-chromen-4-one oxime, hydrochloride], for which the melting point is 240 °C (dec.). In data set [1], the EC50 was less than 1000 nM.

Regarding `ON=c1cc(-c2cc3cccn3cn2)oc2ccc(OCCc3ccc(C(F)(F)F)cc3)cc12` [Example 137, 2-Pyrrolo[1,2-c]pyrimidin-3-yl-6-[2-(4-trifluoromethyl-phenyl)-ethoxy]-chromen-4-one, oxime], the melting point lay in the range of 214 to 215 °C. Besides, the EC50 in data set [1] is less than 1000 nM.

Regarding `COC[C@H]1CCCN1CCOc1ccc2oc(-c3cc4cccn4cn3)cc(=NO)c2c1.Cl` [Example 97, 6-[2-((R)-2-methoxymethylpyrrolidin-1-yl)-ethoxy]-2-pyrrolo[1,2-c]pyrimidin-3-yl-chromen-4-one oxime, hydrochloride], the melting point is 210 °C (dec.). For the same molecule, the EC50 in data set [1] is less than 1000 nM.

Turning to `ON=c1cc(-c2cc3ccccc3cn2)oc2cc(C#Cc3ccncc3)ccc12` (mixture of isomers) [Example 26, 2-isoquinolin-3-yl-7-(pyridin-4-yl)ethynyl-chromen-4-one oxime], the melting point lay within 265 to 270 °C. Besides, the EC50 in data set [1] was less than 5000 nM.

Take `C=CC#Cc1ccc2c(=NO)cc(-c3cc4ccccc4cn3)oc2c1` (mixture of isomers) [Example 55, 7-but-3-en-1-ynyl-2-Isoquinolin-3-yl-chromen-4-one oxime]: the melting point is > 210 °C (dec.). Moreover, the EC50 in data set [1] is less than 5000 nM.

`ON=c1cc(-c2cc3cc(Br)cn3cn2)oc2ccccc12` [Example 65, 2-(6-bromo-Pyrrolo[1,2-c]pyrimidin-3-yl)-chromen-4-one oxime] displayed a melting point of 244 to 245 °C. Also, the EC50 in data set [1] is less than 5000 nM.

Turning to `Cl.ON=c1cc(-c2cc3cccn3cn2)oc2ccc(OCCN3CCCC(F)(F)C3)cc12` [Example 114, 6-[2-(3,3-difluoro-piperidin-1-yl)-ethoxy]-2-pyrrolo[1,2-c]pyrimidin-3-yl-chromen-4-one oxime, hydrochloride], the melting point is 190 to 195 °C. Also, in data set [1], the EC50 was less than 1000 nM.
